Experimental data taken from patent US20230085307A1, “PYRIDAZINONE COMPOUND AND HERBICIDE” (NISSAN CHEMICAL CORPORATION, priority 2019, published 2023).

Key:
soybean [1] = test: Test Example 4: effect on crop by soil treatment (Table 19, symbol d); format: in vivo; conditions: amount of applied herbicide 320 g/ha
Description: (§1) [Test Example 4] Herbicidal Effect Test by Soil Treatment
(§2) Sterilized diluvial soil was placed in a plastic box having a length of 21 cm, a width of 13 cm, and a depth of 7 cm. The seeds of each of southern crabgrass, green foxtail, barnyard grass, wild oat, blackgrass, Italian ryegrass, windgrass, velvetleaf, redroot pigweed, lambsquarters, chickweed, false cleavers, persian speedwell, corn, soybean, rice, wheat, beet, and rapeseed were sowed in a spot-like manner and covered with the soil having a thickness of about 1.5 cm. Subsequently, the emulsion agent of the compound of the present invention prepared according to Formulation Example 2 was diluted with water so as to achieve a predetermined herbicide amount, and the diluted emulsion agent was uniformly applied to the surface of the soil with a small-sized spray. The plastic box was placed in a greenhouse at 25° C. to 30° C. for growth of the plants. Three weeks after the herbicide application, the effect of the herbicide on each plant was evaluated according to the criteria of Test Example 1.

persian speedwell = test: Test Example 4: herbicidal effect by soil treatment (Table 19, symbol R); format: in vivo, Persian speedwell (Veronica persica); conditions: amount of applied herbicide 320 g/ha
How it was run: (§3)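 Soil-surface application: an emulsion agent diluted with water to the predetermined dose is sprayed uniformly over seeds lying under roughly 1.5 cm of sterilized diluvial soil. Boxes stay in a greenhouse at 25° C. to 30° C. Three weeks later, each species is graded on previously defined criteria.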

barnyard grass [2] = test: Test Example 3: herbicidal effect by foliage application, Wagner pot (Table 18, symbol H); format: in vivo, barnyard grass (Echinochloa crus-galli); conditions: amount of applied herbicide 320 g/ha
How it was run: (§4)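 Plants were sown in alluvial soil held under 0.1–0.5 cm standing water and grown 14 days in a greenhouse at 25–30 °C. An emulsifiable formulation, water-diluted to the set dose, was then sprayed onto the foliage, and effects were scored three weeks later using previously defined criteria.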

wild oat = test: Test Example 4: herbicidal effect by soil treatment (Table 19, symbol I); format: in vivo, wild oat (Avena fatua); conditions: amount of applied herbicide 320 g/ha
How it was run: as §3

barnyard grass [3] = test: Test Example 5: herbicidal effect by foliage application, plastic box (Table 20, symbol H); format: in vivo, barnyard grass (Echinochloa crus-galli); conditions: foliage application, 320 g/ha, evaluated three weeks after application
How it was run: (§5)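 Sow seeds spot-wise in sterilized diluvial soil; cover with ~1.5 cm soil. Grow 14 days in greenhouse, 25° C. to 30° C. Spray foliage with emulsion diluted to predetermined amount. Rate effect after 3 weeks.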

beet = test: Test Example 4: effect on crop by soil treatment (Table 19, symbol f); format: in vivo; conditions: amount of applied herbicide 320 g/ha
Description: as §1, §2

rice flat sedge = test: Test Example 3: herbicidal effect by foliage application, Wagner pot (Table 18, symbol E); format: in vivo, rice flat sedge (Cyperus iria); conditions: amount of applied herbicide 320 g/ha
How it was run: as §4

Italian ryegrass [4] = test: Test Example 4: herbicidal effect by soil treatment (Table 19, symbol K); format: in vivo, Italian ryegrass (Lolium multiflorum); conditions: amount of applied herbicide 320 g/ha
How it was run: as §3

soybean [5] = test: Test Example 5: effect on crop by foliage application, plastic box (Table 20, symbol d); format: in vivo; conditions: 320 g/ha, evaluated three weeks after application
Description: (§6) [Test Example 5] Herbicidal Effect Test by Foliage Application
as §2, with “Thereafter, the plants were grown in a greenhouse at 25° C. to 30° C. After 14-day growth of the plants,” for “Subsequently,”, “a foliage part” for “the surface of the soil”, “spray.” for “spray. The plastic box was placed in a greenhouse at 25° C. to 30° C. for growth of the plants.”

rapeseed = test: Test Example 5: effect on crop by foliage application, plastic box (Table 20, symbol g); format: in vivo; conditions: 320 g/ha, evaluated three weeks after application
Description: as §6
as §2, with “Thereafter, the plants were grown in a greenhouse at 25° C. to 30° C. After 14-day growth of the plants,” for “Subsequently,”, “a foliage part” for “the surface of the soil”, “spray.” for “spray. The plastic box was placed in a greenhouse at 25° C. to 30° C. for growth of the plants.”

wheat = test: Test Example 4: effect on crop by soil treatment (Table 19, symbol e); format: in vivo; conditions: amount of applied herbicide 320 g/ha
Description: as §1, §2

redroot pigweed = test: Test Example 5: herbicidal effect by foliage application, plastic box (Table 20, symbol N); format: in vivo, redroot pigweed (Amaranthus retroflexus); conditions: foliage application, 320 g/ha, evaluated three weeks after application
How it was run: as §5

windgrass [6] = test: Test Example 4: herbicidal effect by soil treatment (Table 19, symbol L); format: in vivo, windgrass (Apera spica-venti); conditions: amount of applied herbicide 320 g/ha
How it was run: as §3

Italian ryegrass [7] = test: Test Example 5: herbicidal effect by foliage application, plastic box (Table 20, symbol K); format: in vivo, Italian ryegrass (Lolium multiflorum); conditions: foliage application, 320 g/ha, evaluated three weeks after application
How it was run: as §5

corn = test: Test Example 4: effect on crop by soil treatment (Table 19, symbol c); format: in vivo; conditions: amount of applied herbicide 320 g/ha
Description: as §1, §2

southern crabgrass = test: Test Example 4: herbicidal effect by soil treatment (Table 19, symbol F); format: in vivo, southern crabgrass (Digitaria ciliaris); conditions: amount of applied herbicide 320 g/ha
How it was run: as §3

chickweed [8] = test: Test Example 4: herbicidal effect by soil treatment (Table 19, symbol P); format: in vivo, common chickweed (Stellaria media); conditions: amount of applied herbicide 320 g/ha
How it was run: as §3

chickweed [9] = test: Test Example 5: herbicidal effect by foliage application, plastic box (Table 20, symbol P); format: in vivo, common chickweed (Stellaria media); conditions: foliage application, 320 g/ha, evaluated three weeks after application
How it was run: as §5

windgrass [10] = test: Test Example 5: herbicidal effect by foliage application, plastic box (Table 20, symbol L); format: in vivo, windgrass (Apera spica-venti); conditions: foliage application, 320 g/ha, evaluated three weeks after application
How it was run: as §5

COc1ccccc1-c1sc2ccc(C3CC3)cc2c1-c1c(O)c(C)nn(C)c1=O [Compound No. 2-160, 4-(5-cyclopropyl-2-(2-methoxyphenyl)benzo[b]thiophen-3-yl)-5-hydroxy-2,6-dimethylpyridazin-3(2H)-one]
d: soybean, effect on crop rating (soybean [1]): 0 (Herbicidal rate of 5% or less (almost no effect))
R: persian speedwell, herbicidal effect rating (persian speedwell): 1 (Herbicidal rate of 5% or more and less than 20%)
herbicidal effect on H: barnyard grass (barnyard grass [2]): 4 (Herbicidal rate of 70% or more and less than 90%)
I: wild oat, herbicidal effect rating (wild oat): 0 (Herbicidal rate of 5% or less (almost no effect))
herbicidal effect on H: barnyard grass (criteria 0-5) (barnyard grass [3]): 4 (Herbicidal rate of 70% or more and less than 90%)
f: beet, effect on crop rating (beet): 0 (Herbicidal rate of 5% or less (almost no effect))
herbicidal effect on E: rice flat sedge (rice flat sedge): 3 (Herbicidal rate of 40% or more and less than 70%)
K: Italian ryegrass, herbicidal effect rating (Italian ryegrass [4]): 0 (Herbicidal rate of 5% or less (almost no effect))
effect on crop d: soybean (criteria 0-5) (soybean [5]): 3 (Herbicidal rate of 40% or more and less than 70%)
effect on crop g: rapeseed (criteria 0-5) (rapeseed): 5 (Herbicidal rate of 90% or more (almost completely withered))
e: wheat, effect on crop rating (wheat): 0 (Herbicidal rate of 5% or less (almost no effect))
herbicidal effect on N: redroot pigweed (criteria 0-5) (redroot pigweed): 5 (Herbicidal rate of 90% or more (almost completely withered))
L: windgrass, herbicidal effect rating (windgrass [6]): 3 (Herbicidal rate of 40% or more and less than 70%)
herbicidal effect on K: Italian ryegrass (criteria 0-5) (Italian ryegrass [7]): 3 (Herbicidal rate of 40% or more and less than 70%)
c: corn, effect on crop rating (corn): 0 (Herbicidal rate of 5% or less (almost no effect))
F: southern crabgrass, herbicidal effect rating (southern crabgrass): 0 (Herbicidal rate of 5% or less (almost no effect))
P: chickweed, herbicidal effect rating (chickweed [8]): 1 (Herbicidal rate of 5% or more and less than 20%)
herbicidal effect on P: chickweed (criteria 0-5) (chickweed [9]): 5 (Herbicidal rate of 90% or more (almost completely withered))
herbicidal effect on L: windgrass (criteria 0-5) (windgrass [10]): 5 (Herbicidal rate of 90% or more (almost completely withered))
